Data on 5 compounds can be found in patent US5929063A, “Mercapto and seleno derivatives as inhibitors of nitric oxide synthase” (priority 1995, dated 1999).

For series [1], the system named is constitutive and inducible NOS isoforms. As to conditions: background literature; cited from earlier work.
The target in series [2] is T1, ecNOS (Bos taurus, UniProt P29473).
T1 construct: the intimal surface of fresh bovine aortae was scraped and homogenized; from tissue; host or cells: homogenate of intimal scrapings of fresh bovine aortae
Description: ecNOS activity from intimal scrapings of fresh bovine aortae (conversion of [3H]-L-arginine to [3H]-L-citrulline). In kind it is biochemical. The protocol: The intimal surface of fresh bovine aortae was scraped in the presence of homogenation buffer composed of 50 mM Tris-HCl, 0.1 mM ethylenediamine tetraacetic acid (EDTA) and 0.1 mM ethyleneglycol bis (beta-aminoethyl ether) (EGTA). Conversion of [^3 H]-L-arginine to [^3 H]-L-citrulline was measured in the homogenates as follows: cell homogenate (50 μl) was incubated in the presence of [^3 H]-L-arginine (10 μM, 5 kBq/tube), NADPH (2 mM), calmodulin (30 nM), tetrahydrobiopterin (5 μM) and calcium (2 mM) for 20 minutes at 37° C. in N-2-hydroxethyl piperazine-N-2-ethane sulfonic acid (HEPES) buffer (pH 7.5). Reactions were stopped by dilution with 1 ml of ice cold HEPES buffer (pH 5.5) containing EGTA (2 mM) and EDTA (2 mM). Reaction mixtures were applied to Dowex 50W (Na^+ form) columns and the eluted [^3 H]-L-citrulline activity was measured by scintillation counting. bNOS activity was measured using similar methods in homogenates of whole rat brains.
For a preparation rich in ecNOS, the intimal surface of fresh bovine aortae was scraped and homogenized. The homogenization buffer was composed of 50 mM tris-HCL, 0.1 mM EDTA, 0.1 mM EGTA and 1 mM phenylmethylsulfonyl chloride (pH 7.4). Cell suspensions were homogenized in the homogenization buffer on ice using a Tissue Tearor 985-370 homogenizer (BioSpec Products, Racine, Wis.). Conversion of [^3 H]-L-arginine to [^3 H]-L-citrulline was measured in the homogenates as described in Example 3 above.

For series [3], the target named is T2, bNOS (Rattus norvegicus, UniProt P29476).
T2 construct: bNOS activity was measured using similar methods in homogenates of whole rat brains; from tissue; host or cells: homogenate of whole rat brains
T2 sequence (P29476 whole entry): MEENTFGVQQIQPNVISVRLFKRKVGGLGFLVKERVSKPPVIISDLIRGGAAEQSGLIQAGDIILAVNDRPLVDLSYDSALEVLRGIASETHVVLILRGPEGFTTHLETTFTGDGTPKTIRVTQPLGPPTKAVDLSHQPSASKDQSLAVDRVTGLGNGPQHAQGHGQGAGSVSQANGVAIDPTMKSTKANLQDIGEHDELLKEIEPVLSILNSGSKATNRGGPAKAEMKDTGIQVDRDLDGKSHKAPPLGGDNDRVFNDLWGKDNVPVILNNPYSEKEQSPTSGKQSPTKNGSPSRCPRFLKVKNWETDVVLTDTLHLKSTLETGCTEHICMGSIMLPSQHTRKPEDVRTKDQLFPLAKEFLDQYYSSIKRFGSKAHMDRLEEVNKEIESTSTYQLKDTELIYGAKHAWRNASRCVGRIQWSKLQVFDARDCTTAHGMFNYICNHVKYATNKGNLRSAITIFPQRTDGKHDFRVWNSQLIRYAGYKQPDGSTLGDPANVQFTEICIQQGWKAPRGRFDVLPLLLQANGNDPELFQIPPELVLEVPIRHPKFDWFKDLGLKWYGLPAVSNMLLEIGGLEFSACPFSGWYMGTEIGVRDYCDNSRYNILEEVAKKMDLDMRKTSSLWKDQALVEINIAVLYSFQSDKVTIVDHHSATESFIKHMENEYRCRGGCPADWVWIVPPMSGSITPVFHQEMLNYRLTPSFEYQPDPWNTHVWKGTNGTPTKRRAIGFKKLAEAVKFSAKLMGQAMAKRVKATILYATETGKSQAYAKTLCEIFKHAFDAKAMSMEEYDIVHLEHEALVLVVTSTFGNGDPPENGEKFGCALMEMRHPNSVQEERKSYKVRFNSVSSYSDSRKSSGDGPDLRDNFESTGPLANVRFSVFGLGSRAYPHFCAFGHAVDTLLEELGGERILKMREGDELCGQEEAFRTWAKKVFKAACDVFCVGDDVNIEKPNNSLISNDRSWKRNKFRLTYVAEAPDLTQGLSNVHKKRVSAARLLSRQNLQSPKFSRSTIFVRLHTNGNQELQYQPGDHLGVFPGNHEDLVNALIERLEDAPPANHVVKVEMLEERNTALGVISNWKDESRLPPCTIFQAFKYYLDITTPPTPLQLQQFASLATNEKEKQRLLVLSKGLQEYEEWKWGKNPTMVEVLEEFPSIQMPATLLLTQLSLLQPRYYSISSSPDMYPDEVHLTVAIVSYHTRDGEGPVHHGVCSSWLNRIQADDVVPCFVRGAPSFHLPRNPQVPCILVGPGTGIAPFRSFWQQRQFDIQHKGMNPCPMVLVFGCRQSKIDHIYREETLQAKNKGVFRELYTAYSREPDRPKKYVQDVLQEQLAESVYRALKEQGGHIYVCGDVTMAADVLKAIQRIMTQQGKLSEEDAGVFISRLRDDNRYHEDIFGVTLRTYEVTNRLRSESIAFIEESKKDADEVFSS
Description: bNOS activity in homogenates of whole rat brains. In kind it is biochemical.

For series [4], the target named is T3, iNOS (Rattus norvegicus, UniProt Q06518). Kind of series: Inhibition of iNOS activity in tissue homogenates (Table 2). Details: bNOS in tissue homogenates; from tissue; host or cells: tissue homogenate. The following applies: iNOS (Table 2). The class given is biochemical.
The subject of series [5] is J774 macrophages. Description: Nitrite production by immunostimulated J774 macrophages (endotoxin 24 h, Griess). The class given is cell-based, mouse. The following applies: Mus musculus, read-out: EC50 for the inhibition of nitrite production by stimulated J774 macrophages. How it is done:
(§1) This example illustrates the effect of selected mercapto derivatives on endotoxin-induced nitrite formation in J774.2 macrophages and on IL-1 gamma-interferon induced nitrite formation in cultured rat arctic smooth muscle cells. J774 macrophage cell lines were obtained from the American Type Culture Collection (ATCC) and were grown using standard methods in Dulbecco's Modified Eagle Medium (DMEM) supplemented with 10% fetal bovine serum, glutamine, penicillin (10,000 U/l) and streptomycin (10,000 U/l). Rat aortic smooth muscle cells (RASM) from Wistar rats were isolated by enzymatic dissociation using standard methods. The cells were positively identified as smooth muscle by indirect immunofluorescent staining for a-actin, using mouse anti-α-actin antibody and anti-mouse IgG fluorescein isothiocyanate (FITC) conjugate. RASM cells were grown in T-75 tissue culture flasks in 50% F12 nutrient medium and 50% Dulbecco's Modified Eagle Medium supplemented with 10% fetal bovine serum, glutamine, penicillin (10,000 U/l) and streptomycin (10,000 U/l). Cells were grown in 96-well plates for measure of nitrite production and cell viability. J774 macrophages were treated with endotoxin (10 μg/ml) for 24 hours; smooth muscle cells were treated with IL-1 (100 U/ml) and gamma-interferon (50 U/ml) for 48 hours.
Concentration of nitrite, the degradation product of NO in the culture medium, was determined by mixing equal volumes of medium with the Griess reagent (1% sulfanilamide/0.1% naphthylethylenediamine dihydrochloride/2.5% H3 PO4). The mixture was incubated for 10 minutes at room temperature to form the chromophore, then optical densities (OD) were determined at 550 nm (OD550). NaNO2 was used as the standard. Spectrophotometric measurements were performed in a dual-wavelength spectrophotometer.
For orientation: Nitrite, measured by Griess reagent, commonly stands in for NO production.

Series [6] concerns J774 macrophages. Kind of series: Mitochondrial respiration (MTT reduction), cell viability of immunostimulated J774 macrophages. The class given is cell-based, mouse. The protocol:
as §1
Mitochondrial respiration, an indicator of cell viability, was assessed by the mitochondrial-dependent reduction of MTT [3-(4,5-dimethylthiazol-2-yl)-2,5-diphenyltetrazolium bromide] to formazan. Cells in 96-well plates were incubated (37° C.) with MTT (0.2 mg/ml for 60 minutes). Culture medium was removed by aspiration and the cells solubilized in dimethylsulfoxide (DMSO) (100 μl). The extent of reduction of MTT to formazan within cells was quantitated by measurement of OD550 using a microplate reader. The calibration curve for the reduction of MTT to formazan was prepared in DMSO. Formazan production by cells was expressed as a percentage of the values obtained from untreated cells.

Series [7] is described as follows: Mean arterial blood pressure in normal anesthetized rats. The class given is in vivo, Male Wistar rats. As to conditions: i.v. or i.p.
Description: An increase in blood pressure by agents that inhibit NOS is a good measure of their inhibitory effect on the constitutive, endothelial NOS (ecNOS).
In this particular example, Male Wistar rats were anesthetized with thiopentone sodium (120 mg/kg, i.p). The trachea was cannulated to facilitate respiration and the rectal temperature was maintained at 37° C. by means of a rectal probe connected to a homeothermic blanket. The right carotid artery was cannulated and connected to a pressure transducer for the measurement of phasic and mean arterial blood pressure and heart rate. The left and right femoral veins were cannulated for the administration of drugs.
Series [8] has as its system J774.2 macrophages. Kind of series: Nitrite production in immunostimulated J774.2 macrophages (E.coli LPS + murine gamma-interferon, 24 h). The class given is cell-based, mouse. As to conditions: Mus musculus. The protocol: This example illustrates the effect of selected mercapto and seleno derivatives on nitrite production in J774.2 immunostimulated macrophages. The J774.2 mouse macrophage cell line was obtained from the ATCC and was cultured in DMEM with 4×10^-3 M L-glutamine and 10% fetal calf serum. Cells were cultured in 96-well plates with 200 μl culture medium until they reached 60-80% confluence. To induce INOS, fresh culture medium containing E.coli LPS (10 μg/ml) and murine gamma-interferon (IFN)(50 U/ml) was added. Nitrite accumulation in the cell culture medium in the absence or presence of various inhibitors was measured after 24 hours. Nitrite production, an indicator of NO synthesis, was measured in the supernatant of J774.2 macrophages by the Greiss reaction as described in Example 1 above.
This Example illustrates the effect of selected seleno derivatives on endotoxin-induced nitrite formation in J774.2 macrophages. The mouse macrophage cell line J774.2 obtained from the ATCC was cultured in DMEM with 4×10^-3 M L-glutamine and 10% fetal calf serum. Cells were cultured in 96-well plates with 200 μl culture medium until they reached 60-80% confluence. To induce iNOS, fresh culture medium containing E.coli LPS (10 μg/ml) and murine gamma-interferon (IFN)(50 U/ml) were added. Nitrite accumulation in the cell culture medium in the absence or presence of various inhibitors was measured after 24 hours. There was no detectable nitrite production by the J774.2 macrophages in the absence of immunostimulation. However, in the presence of IFN and LPS, nitrite concentration of the medium increased to 17±2 μM in the absence of inhibitor.

Series [9] has as its target T3, iNOS. Description: iNOS activity in lung homogenates from rats treated with bacterial endotoxin. The class given is biochemical. Set-up: Lungs were obtained from rats which had been treated with bacterial endotoxin; from tissue; host or cells: lung homogenate from endotoxin-treated rats. How it is done: This Example illustrates the effect of selected mercapto and seleno derivatives on iNOS activity in lung homogenates prepared from rats treated with endotoxin. […] The homogenization buffer was composed of 50 mM tris-HCL, 0.1 mM EDTA, 0.1 mM EGTA and 1 mM phenylmethylsulfonyl chloride (pH 7.4). Cell suspensions were homogenized in the homogenization buffer on ice using a Tissue Tearor 985-370 homogenizer (BioSpec Products, Racine, Wis.).

Where [10] appears, read: ecNOS (Table 2), read-out: EC50 for inhibition of ecNOS activity in tissue homogenates.
[11] abbreviates: J774, endotoxin 10 μg/ml, 24 h (Table 1).

Molecules are shown by their SMILES. Where two headings read alike, the source gives them in different places.

By EC50 is commonly meant the concentration giving half of the maximal effect. With `COC(=O)[C@@H](N)CCCNC(=N)N[N+](=O)[O-]` [L-NAME, NG-nitro-L-arginine methyl ester, reference compound], the “NOS inhibition / isoform selectivity, in words” value in series [1] was “inhibit both the constitutive and the inducible NOS isoforms to a similar extent”. The EC50 in series [2] (n=6, bovine aorta, read-out: EC50, dose dependent inhibition of ecNOS activity) was determined as 2 µM.
Turning to `N=C(N)NN` [Aminoguanidine, reference compound], the EC50 in series [3] (bNOS (Table 2), read-out: EC50 for inhibition of bNOS activity in tissue homogenates) turned out to be 220 µM; in series [4], 80 µM; in series [2] (setting [10]) it was 2600 µM; in series [5] (J774, 24 h), 120 µM. Also, the “NOS inhibition / isoform selectivity, in words” value in series [1] is recorded as “selectively inhibit the inducible isoform of nitric oxide synthase”.
On to `N=C(N)NCCS` [MEG, mercaptoethylguanidine], for which the EC50 in [3] turned out to be 60 µM; in series [4], 11.5 µM; in [2] (setting [10]), 110 µM; in series [5] (setting [11]), 13 µM. The figures for the cellular viability result in [6] (1 mM) and in [6] (effective doses 1-100 μM) were “a slight reduction in viability was observed” and “did not decrease cellular viability”, respectively.
For the compound `CNC(=N)NCCC[C@H](N)C(=O)O` [L-NMA, N^G -Methyl-L-arginine, reference compound], the “mean arterial blood pressure (MAP) response” value in series [7] is “pronounced and dose-dependent pressor response”. The EC50 in series [4] is 17 µM; in [8] (J774.2, IFN and LPS, Example 9, read-out: EC50, inhibition of nitrite production) it was 90 µM; in series [5] (setting [11]), 159 µM. For the same compound, the activity at 1000 µM in series [8] (J774.2, 24 h, inhibitor concentration -3.000 log M (Table 3), read-out: NITRITE (% OF CONTROL)) is 12.6%. Further, the activity at 100 µM in series [8] (J774.2, 24 h, inhibitor concentration -4.000 log M (Table 3), read-out: NITRITE (% OF CONTROL)) was 45%. In series [8] (J774.2, 24 h, inhibitor concentration -5.000 log M (Table 3), read-out: NITRITE (% OF CONTROL)), the activity at 10 µM was found to be 73.5%. Moreover, in [8] (J774.2, 24 h, inhibitor concentration -6.000 log M (Table 3), read-out: NITRITE (% OF CONTROL)), the activity at 1 µM worked out at 95%. Moreover, the “iNOS ACTIVITY (%)” value in [9] (inhibitor concentration -3.000 log M) is listed as 18.000%; in [9] (inhibitor concentration -4.000 log M), 40.00%; in [9] (inhibitor concentration -5.000 log M) it was 100.000%; in series [9] (inhibitor concentration -6.000 log M) it was 100.000%; in series [9] (inhibitor concentration -7.000 log M) it was 100.000%. In addition, the “inhibition of iNOS activity, in words” value in series [9] (lung homogenates, rats treated with endotoxin) was “somewhat similar in their inhibitory effect on INOS activity”.
Turning to `N=C(N)NCCCS` [MPG, mercaptopropylguanidine], the EC50 in [3] stood at 80 µM; in series [4] it was 7 µM; in [2] (setting [10]), 4 µM; in [5] (setting [11]), 15 µM. For the same compound, the cellular viability result in series [6] (1 mM) is given as “a slight reduction in viability was observed”; in series [6] (effective doses 1-100 μM), “did not decrease cellular viability”.
